In US11229628B2, “TRPA1 and TRPV4 inhibitors and methods of using the same for organ-specific inflammation and itch” (Duke University, priority 2015, dated 2022):

Key:
Assay type in all cases: cell-based
human TRPV2 = biological target: T1, human TRPV2 (Homo sapiens, UniProt Q9Y5S1); assay: Ca2+ signal in N2a cells transfected with human TRPV2 (hypotonicity stimulation); conditions: hypotonicity (260 mosmol/L) stimulation
T1 construct: expressed in transfected cells; host or cells: N2a cells
T1 sequence (Q9Y5S1 1-764): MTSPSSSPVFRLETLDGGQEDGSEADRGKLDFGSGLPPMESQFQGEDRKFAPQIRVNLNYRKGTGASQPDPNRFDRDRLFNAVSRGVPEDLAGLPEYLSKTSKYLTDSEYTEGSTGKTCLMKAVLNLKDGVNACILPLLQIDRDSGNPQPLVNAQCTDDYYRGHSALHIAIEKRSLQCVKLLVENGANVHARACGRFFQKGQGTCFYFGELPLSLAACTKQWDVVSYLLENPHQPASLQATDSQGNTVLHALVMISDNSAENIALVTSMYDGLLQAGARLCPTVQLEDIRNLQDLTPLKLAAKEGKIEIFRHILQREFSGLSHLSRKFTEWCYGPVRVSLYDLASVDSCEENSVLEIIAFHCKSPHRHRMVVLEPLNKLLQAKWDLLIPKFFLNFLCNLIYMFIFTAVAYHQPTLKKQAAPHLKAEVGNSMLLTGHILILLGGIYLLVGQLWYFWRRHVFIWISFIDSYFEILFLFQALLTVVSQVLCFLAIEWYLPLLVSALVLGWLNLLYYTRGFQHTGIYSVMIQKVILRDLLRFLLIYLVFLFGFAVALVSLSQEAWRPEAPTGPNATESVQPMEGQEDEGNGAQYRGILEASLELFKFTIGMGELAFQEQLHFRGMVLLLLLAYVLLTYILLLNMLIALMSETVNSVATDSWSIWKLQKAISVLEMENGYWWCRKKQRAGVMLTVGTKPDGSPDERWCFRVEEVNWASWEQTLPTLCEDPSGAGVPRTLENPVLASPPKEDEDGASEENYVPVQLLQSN
Experimental: (§1) Compounds were tested for their effect on TRPV1, TRPV2, and TRPV3. Methods were similar to those described in Example 15. Briefly, N2a cells were transfected with human TRPV1, TRPV2, or TRPV3. eGFP-transfection was used as control. For specific stimulation of TRPV1, 5 μM capsaicin was used. For stimulation of TRPV2, hypotonicity (260 mosmol/L) was used, based on previous reports of TRPV2 being osmotically responsive. N2a cells were not responsive to hypotonicity, and neither were control-transfected cells. For TRPV3-expressing cells, camphor (20% of a commercially available stock solution) was used. […] Stimulation and control protocols were applied as for TRPA1-expressing N2a cells as detailed above in Example 15.
(§2) For TRPV1, TRPV2, and TRPV3, Ca2+ transience was not affected by administration of 16-8 or 16-8/18hy.

human TRPV1 = biological target: T2, human TRPV1 (Homo sapiens, UniProt Q8NER1); assay: Ca2+ signal in N2a cells transfected with human TRPV1 (capsaicin stimulation); conditions: 5 μM capsaicin stimulation
T2 construct: expressed in transfected cells; host or cells: N2a cells
T2 sequence (Q8NER1 whole entry): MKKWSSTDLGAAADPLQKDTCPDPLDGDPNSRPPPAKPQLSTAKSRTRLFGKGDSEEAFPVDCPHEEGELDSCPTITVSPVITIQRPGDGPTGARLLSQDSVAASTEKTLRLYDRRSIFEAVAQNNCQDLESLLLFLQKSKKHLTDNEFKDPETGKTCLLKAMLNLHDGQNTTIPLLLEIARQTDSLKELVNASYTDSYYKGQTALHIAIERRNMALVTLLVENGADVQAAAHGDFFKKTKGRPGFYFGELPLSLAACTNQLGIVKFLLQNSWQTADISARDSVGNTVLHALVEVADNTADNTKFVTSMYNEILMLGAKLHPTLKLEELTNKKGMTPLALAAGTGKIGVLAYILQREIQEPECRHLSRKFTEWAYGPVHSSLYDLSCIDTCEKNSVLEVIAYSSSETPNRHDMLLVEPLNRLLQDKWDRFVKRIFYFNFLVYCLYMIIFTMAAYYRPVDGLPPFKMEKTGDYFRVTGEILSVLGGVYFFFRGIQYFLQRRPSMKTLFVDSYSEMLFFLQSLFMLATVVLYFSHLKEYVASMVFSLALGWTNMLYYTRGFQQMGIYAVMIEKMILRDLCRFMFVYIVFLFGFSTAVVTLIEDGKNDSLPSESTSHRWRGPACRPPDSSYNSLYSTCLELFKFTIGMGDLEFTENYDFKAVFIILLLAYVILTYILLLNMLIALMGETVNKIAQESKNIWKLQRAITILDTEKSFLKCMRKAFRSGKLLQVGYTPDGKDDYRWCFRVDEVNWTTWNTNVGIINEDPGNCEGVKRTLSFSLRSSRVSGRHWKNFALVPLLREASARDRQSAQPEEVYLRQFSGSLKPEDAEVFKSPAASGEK
Experimental: as §1, §2

human TRPV3 = biological target: T3, human TRPV3 (Homo sapiens, UniProt Q8NET8); assay: Ca2+ signal in N2a cells transfected with human TRPV3 (camphor stimulation)
T3 construct: expressed in transfected cells; host or cells: N2a cells
T3 sequence (Q8NET8 1-790): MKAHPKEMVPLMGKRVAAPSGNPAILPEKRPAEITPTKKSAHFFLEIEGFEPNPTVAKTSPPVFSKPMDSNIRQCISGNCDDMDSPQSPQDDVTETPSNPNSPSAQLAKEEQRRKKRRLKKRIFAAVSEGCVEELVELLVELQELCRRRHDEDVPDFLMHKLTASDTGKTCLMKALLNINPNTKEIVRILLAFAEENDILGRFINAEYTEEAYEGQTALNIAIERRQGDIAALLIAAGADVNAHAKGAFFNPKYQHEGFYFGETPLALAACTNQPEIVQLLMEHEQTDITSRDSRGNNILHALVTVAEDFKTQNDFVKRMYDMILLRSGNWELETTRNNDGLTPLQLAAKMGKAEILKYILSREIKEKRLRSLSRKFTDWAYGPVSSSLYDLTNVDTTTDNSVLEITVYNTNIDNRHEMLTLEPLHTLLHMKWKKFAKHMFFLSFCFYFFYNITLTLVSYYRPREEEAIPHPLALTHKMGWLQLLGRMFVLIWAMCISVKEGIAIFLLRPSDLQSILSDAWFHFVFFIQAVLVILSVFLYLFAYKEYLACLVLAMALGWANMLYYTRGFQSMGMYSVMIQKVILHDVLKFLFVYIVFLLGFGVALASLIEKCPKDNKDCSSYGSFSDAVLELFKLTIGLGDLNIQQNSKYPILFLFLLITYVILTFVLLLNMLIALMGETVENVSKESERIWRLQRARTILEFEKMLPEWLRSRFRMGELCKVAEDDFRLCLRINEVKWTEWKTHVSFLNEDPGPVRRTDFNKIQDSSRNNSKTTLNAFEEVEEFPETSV
Experimental: as §1, §2

CCN(CCc1ccc(Nc2nc(-c3ccccc3)cs2)cc1)Cc1ccccc1 [16-8/18hy]
not affected: Ca2+ transience, TRPV2 (human TRPV2) | Ca2+ transience, TRPV1 (human TRPV1) | Ca2+ transience, TRPV3 (human TRPV3)

CN(CCc1ccc(Nc2nc(-c3ccccc3)cs2)cc1)Cc1ccccc1 [Compound 16-8]
not affected: Ca2+ transience, TRPV2 (human TRPV2) | Ca2+ transience, TRPV1 (human TRPV1) | Ca2+ transience, TRPV3 (human TRPV3)
